How the values were obtained:
human PPARalpha = biological target: T1, human PPARalpha (Homo sapiens, UniProt Q07869); test: Cellular PPARalpha assay (HEK PPARalpha reporter cell line, luciferase); type: cell-based; settings: 24 h incubation
T1 construct: human PPARalpha receptor (amino acids S167-Y468); expressed in transfected cells; plasmid pcDNA3
T1 sequence (Q07869 167-468): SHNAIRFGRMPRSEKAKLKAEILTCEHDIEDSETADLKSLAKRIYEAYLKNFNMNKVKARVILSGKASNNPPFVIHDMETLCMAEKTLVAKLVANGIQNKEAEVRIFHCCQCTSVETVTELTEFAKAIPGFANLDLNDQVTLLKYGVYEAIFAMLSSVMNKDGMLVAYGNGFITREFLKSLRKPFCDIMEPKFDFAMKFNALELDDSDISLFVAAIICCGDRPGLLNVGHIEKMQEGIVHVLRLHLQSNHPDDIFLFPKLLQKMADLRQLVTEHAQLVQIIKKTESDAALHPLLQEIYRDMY
Method: The activity of the compounds was tested as follows. The potency of substances which bind to human PPARalpha and activate it in an agonistic manner is analyzed using a stably transfected HEK cell line (HEK=human embryo kidney) which is referred to here as PPARalpha reporter cell line. It contains two genetic elements, a luciferase reporter element (pdeltaM-GAL4-Luc-Zeo) and a PPARalpha fusion protein (GR-GAL4-humanPPARalpha-LBD) which mediates expression of the luciferase reporter element depending on a PPARalpha ligand. The stably and constitutively expressed fusion protein GR-GAL4-humanPPARalpha-LBD binds in the cell nucleus of the PPARalpha reporter cell line via the GAL4 protein portion to the GAL4 DNA binding motifs 5′-upstream of the luciferase reporter element which is stably integrated in the genome of the cell line. There is only weak expression of the luciferase reporter gene in the absence of a PPARalpha ligand if fatty acid-depleted fetal calf serum (cs-FCS) is used in the assay. PPARalpha ligands bind and activate the PPARalpha fusion protein and thereby stimulate the expression of the luciferase reporter gene. The luciferase which is formed can be detected by means of chemiluminescence via an appropriate substrate.
The PPARalpha reporter cell line was prepared in two stages. Firstly, the luciferase reporter element was constructed and stably transfected into HEK cells. For this purpose, five binding sites of the yeast transcription factor GAL4 (Accession # AF264724) were cloned in 5′-upstream of a 68 bp-long minimal MMTV promoter (Accession # V01175). The minimal MMTV promoter section contains a CCAAT box and a TATA element in order to enable efficient transcription by RNA polymerase II. The cloning and sequencing of the GAL4-MMTV construct took place in analogy to the description of Sambrook J. et. al. (Molecular cloning, Cold Spring Harbor Laboratory Press, 1989). Then the complete Photinus pyralis gene (Accession # M15077) was cloned in 3′-downstream of the GAL4-MMTV element. After sequencing, the luciferase reporter element consisting of five GAL4 binding sites, MMTV promoter and luciferase gene was recloned into a plasmid which confers zeocin resistance in order to obtain the plasmid pdeltaM-GAL4-Luc-Zeo. This vector was transfected into HEK cells in accordance with the statements in Ausubel, F. M. et al. (Current protocols in molecular biology, Vol. 1-3, John Wiley & Sons, Inc., 1995).
In a second step, the PPARalpha fusion protein (GR-GAL4-humanPPARalpha-LBD was introduced into the stable cell clone described. For this purpose, initially the cDNA coding for the N-terminal 76 amino acids of the glucocorticoid receptor (Accession # P04150) was linked to the cDNA section coding for amino acids 1-147 of the yeast transcription factor GAL4 (Accession # P04386). The cDNA of the ligand-binding domain of the human PPARalpha receptor (amino acids S167-Y468; Accession # S74349) was cloned in at the 3′-end of this GR-GAL4 construct. The fusion construct prepared in this way (GR-GAL4-humanPPARalpha-LBD) was recloned into the plasmid pcDNA3 (Invitrogen) in order to enable constitutive expression therein by the cytomegalovirus promoter. This plasmid was linearized with a restriction endonuclease and stably transfected into the previously described cell clone containing the luciferase reporter element. The finished PPARalpha reporter cell line which contains a luciferase reporter element and constitutively expresses the PPARalpha fusion protein (GR-GAL4-human PPARalpha-LBD) was isolated by selection with zeocin (0.5 mg/ml) and G418 (0.5 mg/ml).
The activity of PPARalpha agonists is determined in a 3-day assay which is described below: […]

human PPARdelta = biological target: T2, human PPARdelta (Homo sapiens, UniProt Q03181); test: Cellular PPARdelta assay (HEK PPARdelta reporter cell line, luciferase); type: cell-based; settings: 24 h incubation
T2 construct: human PPARdelta receptor (amino acids S139-Y441); expressed in transfected cells; plasmid pcDNA3
T2 sequence (Q03181 139-441): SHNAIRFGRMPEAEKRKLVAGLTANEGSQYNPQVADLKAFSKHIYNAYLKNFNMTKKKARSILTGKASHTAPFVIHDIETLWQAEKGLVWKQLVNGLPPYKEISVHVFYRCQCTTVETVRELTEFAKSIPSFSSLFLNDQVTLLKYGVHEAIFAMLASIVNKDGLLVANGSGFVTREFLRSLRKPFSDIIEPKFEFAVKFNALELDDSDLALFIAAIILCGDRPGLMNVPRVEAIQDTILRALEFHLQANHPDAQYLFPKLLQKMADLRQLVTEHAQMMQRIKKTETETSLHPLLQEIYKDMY
Method: The raw data from the luminometer are transferred into a Microsoft Excel file. Dose-effect plots and EC50 values of PPAR agonists are calculated using the XL.Fit program as specified by the manufacturer (IDBS). […] Compounds of the invention of the formula I activate the PPARalpha receptor. Determination of EC50 values of PPAR agonists in the cellular PPARdelta assay The potency of substances which bind to human PPARdelta and activate it in an agonistic manner is analyzed using a stably transfected HEK cell line (HEK=human embryo kidney) which is referred to here as PPARdelta reporter cell line. In analogy to the assay described for PPARalpha, the PPARdelta reporter cell line also contains two genetic elements, a luciferase reporter element (pdeltaM-GAL4-Luc-Zeo) and a PPARdelta fusion protein (GR-GAL4-humanPPARdelta-LBD) which mediates expression of the luciferase reporter element depending on a PPARdelta ligand. The stably and constitutively expressed fusion protein GR-GAL4-humanPPARdelta-LBD binds in the cell nucleus of the PPARdelta reporter cell line via the GAL4 protein portion to the GAL4 DNA binding motifs 5′-upstream of the luciferase reporter element which is stably integrated in the genome of the cell line. There is only little expression of the luciferase reporter gene in the absence of a PPARdelta ligand if fatty acid-depleted fetal calf serum (cs-FCS) is used in the assay. PPARdelta ligands bind and activate the PPARdelta fusion protein and thereby stimulate expression of the luciferase reporter gene. The luciferase which is formed can be detected by means of chemiluminescence via an appropriate substrate.
The production of the stable PPARdelta reporter cell line is based on a stable HEK-cell clone which was stably transfected with a luciferase reporter element. This step was already described above in the section “construction of the PPARalpha reporter cell line”. In a second step, the PPARdelta fusion protein (GR-GAL4-humanPPARdelta-LBD was stably introduced into this cell clone. For this purpose, the cDNA coding for the N-terminal 76 amino acids of the glucocorticoid receptor (Accession # P04150) was linked to the cDNA section coding for amino acids 1-147 of the yeast transcription factor GAL4 (Accession # P04386). The cDNA of the ligand-binding domain of the human PPARdelta receptor (amino acids S139-Y441; Accession # L07592) was cloned in at the 3′-end of this GR-GAL4 construct. The fusion construct prepared in this way (GR-GAL4-humanPPARdelta-LBD) was recloned into the plasmid pcDNA3 (Invitrogen) in order to enable constitutive expression by the cytomegalovirus promoter. This plasmid was linearized with a restriction endonuclease and stably transfected into the previously described cell clone containing the luciferase reporter element. The resulting PPARdelta reporter cell line which contains a luciferase reporter element and constitutively expresses the PPARdelta fusion protein (GR-GAL4-human PPARdelta-LBD) was isolated by selection with zeocin (0.5 mg/ml) and G418 (0.5 mg/ml).
The activity of PPARdelta agonists is determined in a 3-day assay in exact analogy to the procedure already described for the PPARalpha reporter cell line except that the PPARdelta reporter cell line and a specific PPARdelta agonist was used as a standard to control test efficacy. PPARdelta EC50 values in the range from 0.3 nM to >10 μM were measured for the PPAR agonists of Examples 1 to 69 described in this application. Compounds of the invention of the formula I activate the PPARdelta receptor.

| SMILES | EC50 (human PPARalpha) | EC50 (human PPARdelta) |
| --- | --- | --- |
| Cc1nc(C2CCCCC2)sc1COc1ccc(-c2noc(=O)[nH]2)c(Cl)c1 [Example 5, 3-[2-Chloro-4-(2-cyclohexyl-4-methyl-thiazol-5-ylmethoxy)-phenyl]-4H-[1,2,4]oxadiazol-5-one] | 1260 nM | 230 nM |
| COCc1nc(CCC2CCCCC2)sc1COc1ccc(-c2noc(=O)[nH]2)c(Cl)c1 [Example 10, 3-{2-Chloro-4-[2-(2-cyclohexyl-ethyl)-4-methoxymethyl-thiazol-5-ylmethoxy]-phenyl}-4H-[1,2,4]oxadiazol-5-one] | 530 nM | 70 nM |
| COCc1nc(C2CCCCCC2)sc1COc1ccc(-c2noc(=O)[nH]2)c(Cl)c1 [Example 11, 3-[2-Chloro-4-(2-cycloheptyl-4-methoxymethyl-thiazol-5-ylmethoxy)-phenyl]-4H-[1,2,4]oxadiazol-5-one] | 1250 nM | 130 nM |
| COCc1nc([C@H]2CC[C@H](c3ccc(Cl)cc3)CC2)sc1COc1ccc(-c2noc(=O)[nH]2)c(Cl)c1 [Example 12, Trans-3-(2-Chloro-4-{2-[4-(4-chloro-phenyl)-cyclohexyl]-4-methoxymethyl-thiazol-5-ylmethoxy}-phenyl)-4H-[1,2,4]oxadiazol-5-one] | 800 nM | 10 nM |
| COCc1nc([C@H]2CC[C@H](C(F)(F)F)CC2)oc1COc1ccc(-c2noc(=O)[nH]2)c(Cl)c1 [Example 18a, Trans-3-{2-Chloro-4-[4-methoxymethyl-2-(4-trifluoromethyl-cyclohexyl)-oxazol-5-ylmethoxy]-phenyl}-4H-[1,2,4]oxadiazol-5-one] | 2500 nM | 40 nM |
| O=c1[nH]c(-c2ccc(OCc3sc(-c4ccc(C(F)(F)F)nc4)nc3CCCOCc3ccccc3)cc2Cl)no1 [Example 25, 3-{4-[4-(3-Benzyloxy-propyl)-2-(6-trifluoromethyl-pyridin-3-yl)-thiazol-5-ylmethoxy]-2-chloro-phenyl}-4H-[1,2,4]oxadiazol-5-one] | 75 nM | 0.3 nM |
| Cc1nc(-c2ccc(C(F)(F)F)nc2)sc1C(OCc1ccc(-c2noc(=O)[nH]2)c(F)c1)C(F)(F)F (stereo not drawn) [Example 31, 3-(2-Fluoro-4-{2,2,2-trifluoro-1-[4-methyl-2-(6-trifluoromethyl-pyridin-3-yl)-thiazol-5-yl]-ethoxymethyl}-phenyl)-4H-[1,2,4]oxadiazol-5-one] | > 33000 nM | 14 nM |
| Cc1nc(-c2ccc(C(F)(F)F)nc2)sc1C(OCc1ccc(-c2noc(=O)[nH]2)c(Cl)n1)C(F)(F)F (stereo not drawn) [Example 37, 3-(2-Chloro-6-{2,2,2-trifluoro-1-[4-methyl-2-(6-trifluoromethyl-pyridin-3-yl)-thiazol-5-yl]-ethoxymethyl}-pyridin-3-yl)-4H-[1,2,4]oxadiazol-5-one] | > 33000 nM | 59 nM |
| Cc1nc([C@H]2CC[C@H](C(F)(F)F)CC2)sc1C(OCc1ccc(-c2noc(=O)[nH]2)c(C2CC2)c1)C(F)(F)F (stereo partly drawn) [Example 39, 3-(2-Cyclopropyl-4-{2,2,2-trifluoro-1-[4-methyl-2-(trans,1,4-trifluoromethyl-cyclohexyl)-thiazol-5-yl]-ethoxymethyl}-phenyl)-4H-[1,2,4]oxadiazol-5-one] | 5440 nM | 86 nM |
| Cc1nc(-c2cccc3cccnc23)sc1COc1ccc(-c2nc(=O)o[nH]2)c(Cl)c1 [Example 46, 3-[2-Chloro-4-(4-methyl-2-quinolin-8-yl-thiazol-5-ylmethoxy)-phenyl]-2H-[1,2,4]oxadiazol-5-one] | 4330 nM | 7390 nM |
| CCC(Oc1cc(OC)c(-c2noc(=O)[nH]2)cc1F)c1sc([C@H]2CC[C@H](C(F)(F)F)CC2)nc1C (stereo partly drawn) [Example 51, 3-(5-Fluoro-2-methoxy-4-{1-[4-methyl-2-(trans-1,4-trifluoromethyl-cyclohexyl)-thiazol-5-yl]-propoxy}-phenyl)-4H-1,2,4-oxadiazol-5-one] | 335 nM | 7 nM |
| CCC(Oc1ccc(-c2noc(=O)[nH]2)c(OC(F)F)c1)c1sc([C@H]2CC[C@H](C(F)(F)F)CC2)nc1CN1CCC(C(F)(F)F)CC1 (stereo partly drawn) [Example 61, 3-(2-Difluoromethoxy-4-{1-[2-(trans-1,4-trifluoromethyl-cyclohexyl)-4-(4-trifluoromethyl-piperidin-1-ylmethyl)-thiazol-5-yl]-propoxy}-phenyl)-4H-1,2,4-oxadiazol-5-one] | > 33000 nM | 7 nM |

— patent US7709481B2, “Phenyl-1,2,4-oxadiazolone derivatives, processes for their preparation and methods for their use as pharmaceuticals” (Sanofi-Aventis, priority 2005, dated 2010)
